Source: patent US11365192B2, “Pyridine compound substituted with azole” (TAISHO PHARMACEUTICAL CO., LTD., priority 2017, dated 2022)
pIC50: −log10 of the molar value.

Key:
human CYP4F2 = human CYP4F2 (Homo sapiens (Human), UniProt P78329); experiment: Inhibition test against 20-HETE producing enzyme CYP4F2 (luciferine derivative, luminescence); assay type: biochemical; settings: E. coli membrane fraction expressing human CYP4F2, 2.5 μM luciferine derivative, room temperature 60 minutes
Method: (§1) (1) Inhibition Test for Each Compound of the Present Invention Against 20-HETE Producing Enzymes (CYP4F2 and CYP4A11)
(§2) In the CYP4F2 inhibition test, the reaction solution containing each compound [final concentration of 50 mM, KPO4 (pH 7.4), 2.5 μM luciferine derivative, and 1 mM NADPH] was added to an Escherichia coli membrane fraction (100 μg/mL protein) in which human CYP4F2 had been expressed. In the CYP4A11 inhibition test, the reaction solution containing each compound [final concentration of 100 mM, Tris-HCl (pH 7.5), 60 μM luciferine derivative, 1.3 mM NADP^+, 3.3 mM Glucose 6-Phosphate, 3.3 mM MgCl2, and 0.4 U/mL Glucose 6-Phosphate dehydrogenase] was added to an Escherichia coli membrane fraction (100 μg/mL protein) in which human CYP4A11 had been expressed. Following this, the membrane fraction was left to stand at room temperature for 60 minutes to perform an enzymatic reaction. After the reaction, a luciferine detection reagent was added, and the luminescence value was measured using a plate reader. By using that value, the percent inhibition of 20-HETE producing enzyme (%) was calculated according to the equation described below, and the 50% inhibitory concentration (IC50 value) for each compound was calculated. Percent inhibition of 20-HETE producing enzyme (%)=[1−(A−B)/(C−B)]*100
(§3) A: Luminescence value with addition of compound
(§4) B: Luminescence value without addition of compound and enzyme

human CYP4A11 = human CYP4A11 (Homo sapiens (Human), UniProt Q02928); experiment: Inhibition test against 20-HETE producing enzyme CYP4A11 (luciferine derivative, luminescence); assay type: biochemical; settings: E. coli membrane fraction expressing human CYP4A11, 60 μM luciferine derivative, room temperature 60 minutes
Method: as §1, §2, §3, §4

human CYP4F2, sequence (P78329 5-520): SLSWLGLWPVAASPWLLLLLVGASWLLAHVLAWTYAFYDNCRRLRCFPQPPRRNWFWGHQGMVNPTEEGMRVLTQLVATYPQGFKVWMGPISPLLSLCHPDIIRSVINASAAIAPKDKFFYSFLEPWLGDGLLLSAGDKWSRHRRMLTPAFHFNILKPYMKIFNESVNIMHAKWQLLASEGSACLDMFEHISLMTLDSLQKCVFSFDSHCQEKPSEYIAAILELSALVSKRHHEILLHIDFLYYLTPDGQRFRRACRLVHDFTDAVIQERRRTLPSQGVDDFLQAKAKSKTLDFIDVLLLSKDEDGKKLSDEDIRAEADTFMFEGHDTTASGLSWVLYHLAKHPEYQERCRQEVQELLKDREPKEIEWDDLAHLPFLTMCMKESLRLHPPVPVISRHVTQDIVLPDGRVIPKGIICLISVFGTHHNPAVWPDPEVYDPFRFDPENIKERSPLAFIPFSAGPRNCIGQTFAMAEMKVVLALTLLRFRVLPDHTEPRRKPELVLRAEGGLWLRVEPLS
human CYP4A11, sequence (Q02928 5-519): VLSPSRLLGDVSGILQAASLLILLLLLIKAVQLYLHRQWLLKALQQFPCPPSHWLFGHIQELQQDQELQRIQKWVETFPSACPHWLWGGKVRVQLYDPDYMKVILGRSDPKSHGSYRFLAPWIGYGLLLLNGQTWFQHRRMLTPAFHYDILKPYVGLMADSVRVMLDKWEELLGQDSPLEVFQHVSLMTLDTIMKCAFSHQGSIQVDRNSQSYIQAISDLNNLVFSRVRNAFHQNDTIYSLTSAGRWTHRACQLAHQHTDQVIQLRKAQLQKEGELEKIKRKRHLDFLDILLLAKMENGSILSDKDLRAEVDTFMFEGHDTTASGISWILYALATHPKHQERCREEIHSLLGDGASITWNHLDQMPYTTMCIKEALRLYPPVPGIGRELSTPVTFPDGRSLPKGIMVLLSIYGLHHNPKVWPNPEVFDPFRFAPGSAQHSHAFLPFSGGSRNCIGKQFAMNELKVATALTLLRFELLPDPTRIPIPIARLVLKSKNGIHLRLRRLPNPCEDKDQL

SMILES | pIC50 (human CYP4F2) | pIC50 (human CYP4A11)
O=C(O)C1(CCCCCCCOc2ccc(-c3ccn[nH]3)nc2)CCCC1 [Example 1-45] | 7.72 | 7.34
O=C(O)C1(CCCCCCOc2ccc(-c3ccn[nH]3)nc2)CCCC1 [Example 1-46, 1-[6-[[6-(1H-Pyrazol-5-yl)-3-pyridinyl]oxy]hexyl]-1-cyclopentanecarboxylic Acid] | 6.43 | 7.18
O=C(O)CCCCCOc1ccc(-c2ccn[nH]2)nc1 [Example 1-47, 6-[[6-(1H-Pyrazol-5-yl)-3-pyridinyl]oxy]hexanoic Acid] | 4.85 | 7.17
O=C(O)CCCCCCCOc1ccc(-c2ccn[nH]2)nc1 [Example 1-48] | 5.70 | 7.36
O=C(O)C1CCC(COc2ccc(-c3ccn[nH]3)nc2)CC1 (stereo not shown) [Example 1-49] | 4.62 | 6.85
O=C(O)[C@H]1CC[C@@H](COc2ccc(-c3ccn[nH]3)nc2)CC1 [Example 1-50] | 4.64 | 6.77
O=C(O)CCCCCCCCOc1ccc(-c2ccn[nH]2)nc1 [Example 1-51] | 6.70 | 7.27
O=C(O)CCCCCCCCCOc1ccc(-c2ccn[nH]2)nc1 [Example 1-52] | 7.39 | 7.36
O=C(O)C1CCCC(COc2ccc(-c3ccn[nH]3)nc2)C1 (stereo not shown) [Example 1-54] | 5.47 | 7.24
O=C(O)C12CCCC(CCCOc3ccc(-c4ccn[nH]4)nc3)(C1)C2 [Example 1-55] | 5.43 | 7.52
O=C(O)Cn1ccc(-c2cccc(COc3ccc(-c4ccn[nH]4)nc3)c2)cc1=O [Example 1-58] | 6.19 | 7.07
CC(C)(CCCCOc1ccc(-c2ccn[nH]2)nc1)C(=O)O [Example 1-59] | 4.77 | 7.38
CC(C)(CCCOc1ccc(-c2ccn[nH]2)nc1)CC(=O)O [Example 1-60] | 4.51 | 7.42
CC(C)(CCCCCCOc1ccc(-c2ccn[nH]2)nc1)C(=O)O [Example 1-61, 2,2-Dimethyl-8-[[6-(1H-pyrazol-5-yl)-3-pyridinyl]oxy]octanoic Acid] | 5.72 | 7.59
CC(C)(CCCCCCCOc1ccc(-c2ccn[nH]2)nc1)C(=O)O [Example 1-62] | 7.02 | 7.64
CC(C)(CCCCCCCCOc1ccc(-c2ccn[nH]2)nc1)C(=O)O [Example 1-63] | 8.05 | 7.44
CCC(CC)(CCCCOc1ccc(-c2ccn[nH]2)nc1)C(=O)O [Example 1-64, 2,2-Diethyl-6-[[6-(1H-pyrazol-5-yl)-3-pyridinyl]oxy]hexanoic Acid] | 5.12 | 7.55
COc1ccc(COc2ccc(-c3ccn[nH]3)nc2)cc1C(=O)O [Example 1-65, 2-Methoxy-5-[[6-(1H-pyrazol-5-yl)-3-pyridinyl]oxymethyl]benzoic Acid] | 4.62 | 5.92
CC(C)(Oc1cccc(COc2ccc(-c3ccn[nH]3)nc2)n1)C(=O)O [Example 1-66] | < 4.30 | 6.48

SMILES | pIC50 (human CYP4F2) | pIC50 (human CYP4A11)
CC(C)(OCCOCCCCOc1ccc(-c2ccn[nH]2)nc1)C(=O)O [Example 1-67] | 5.00 | 6.92
O=C(O)C1CCc2cc(COc3ccc(-c4ccn[nH]4)nc3)ccc2O1 (stereo not shown) [Example 1-69] | 5.52 | 7.12
O=C(O)[C@]12CC3C[C@H](C1)[C@H](COc1ccc(-c4ccn[nH]4)nc1)[C@@H](C3)C2 [Example 2-1, trans-4-[[6-(1H-Pyrazol-5-yl)-3-pyridinyl]oxymethyl]-1-adamantanecarboxylic Acid] | 4.62 | 7.64
O=C(O)[C@]12CC3C[C@H](C1)[C@@H](COc1ccc(-c4ccn[nH]4)nc1)[C@@H](C3)C2 [Example 2-2, cis-4-[[6-(1H-Pyrazol-5-yl)-3-pyridinyl]oxymethyl]-1-adamantanecarboxylic Acid] | < 4.30 | 6.89
O=C(O)C1(OCCCCCCCOc2ccc(-c3ccn[nH]3)nc2)CCCC1 [Example 2-3] | 7.12 | 7.00
O=C(O)C1(OCCOCCCCOc2ccc(-c3ccn[nH]3)nc2)CCCC1 [Example 2-4] | 5.74 | 6.70
O=C(O)CCc1ccccc1CCOc1ccc(-c2ccn[nH]2)nc1 [Example 2-5, 3-[2-[2-[[6-(1H-Pyrazol-5-yl)-3-pyridinyl]oxy]ethyl]phenyl]propanoic Acid] | 5.07 | 7.82
O=C(O)CCC12CCC(COc3ccc(-c4ccn[nH]4)nc3)(CC1)CC2 [Example 2-7] | 5.36 | 7.46
O=C(CCCC1(C(=O)O)CCCC1)N1CCC[C@@H](COc2ccc(-c3ccn[nH]3)nc2)C1 [Example 3-2] | 6.36 | 6.92
O=C(CCC1(C(=O)O)CCCC1)N1CCC(CCOc2ccc(-c3ccn[nH]3)nc2)CC1 [Example 3-3] | 5.64 | 6.41
O=C(CCC1(C(=O)O)CCCC1)N1CCCC(CCOc2ccc(-c3ccn[nH]3)nc2)C1 (stereo not shown) [Example 3-4] | 6.59 | 5.74
CC(=O)N1CCC(CCCCCCOc2ccc(-c3ccn[nH]3)nc2)(C(=O)O)CC1 [Example 3-5] | 5.52 | 5.66
CC(=O)N1CCC(CCCCCCOc2ccc(-c3ccn[nH]3)nc2)(C(=O)O)C1 (stereo not shown) [Example 3-6] | 5.57 | 6.09
O=C(O)C1(CCCCCCOc2ccc(-c3ccn[nH]3)nc2)CCS(=O)(=O)CC1 [Example 3-7] | 5.24 | 5.80
CC(=O)N1CCC(CCCCCCCOc2ccc(-c3ccn[nH]3)nc2)(C(=O)O)CC1 [Example 3-8] | 6.60 | 5.92
O=C(O)C1(C(=O)NCCCCCCOc2ccc(-c3ccn[nH]3)nc2)CCCC1 [Example 3-9] | 6.37 | 6.62
CN(CCCCCCOc1ccc(-c2ccn[nH]2)nc1)C(=O)C1(C(=O)O)CCCC1 [Example 3-10] | 6.60 | 7.04
O=S(=O)(CCO)c1cccc(COc2ccc(-c3ccn[nH]3)nc2)c1 [Example 3-11] | 6.54 | 7.26

The remaining lines, values ahead:

pIC50 (human CYP4F2) | pIC50 (human CYP4A11) | SMILES
6.08 | 7.66 | O=C(O)CCCc1cccc(CCOc2ccc(-c3ccn[nH]3)nc2)c1 [Example 4-1, 4-[3-[2-[[6-(1H-Pyrazol-5-yl)-3-pyridinyl]oxy]ethyl]phenyl]butanoic Acid]
6.80 | 6.60 | O=C(O)CCCc1ccc(CCOc2ccc(-c3ccn[nH]3)nc2)cc1 [Example 4-2]
5.77 | 7.14 | O=C(O)c1ccc2c(c1)C(CCOc1ccc(-c3ccn[nH]3)nc1)CCC2 (stereo not shown) [Example 5-2]
8.10 | 6.11 | CC(=O)N1CCC(CCCCCCCCOc2ccc(-c3ccn[nH]3)nc2)(C(=O)O)CC1 [Example 6-1, 1-Acetyl-4-[8-[[6-(1H-pyrazol-5-yl)-3-pyridinyl]oxy]octyl]-4-piperidinecarboxylic Acid]
4.32 | 7.47 | CC(C)(CCOc1ccc(-c2ccn[nH]2)nc1)CCC(=O)O [Example 7-1, 4,4-Dimethyl-6-[[6-(1H-pyrazol-5-yl)-3-pyridinyl]oxy]hexanoic Acid]
6.10 | 7.70 | O=C(O)[C@H]1CC[C@@H](c2cccc(COc3ccc(-c4ccn[nH]4)nc3)c2)CC1 [Example 8-1, cis-4-[3-[[6-(1H-Pyrazol-5-yl)-3-pyridinyl]oxymethyl]phenyl]-1-cyclohexanecarboxylic Acid]
5.19 | 7.72 | O=C(O)[C@H]1CC[C@H](c2cccc(COc3ccc(-c4ccn[nH]4)nc3)c2)CC1 [Example 8-2, trans-4-[3-[[6-(1H-Pyrazol-5-yl)-3-pyridinyl]oxymethyl]phenyl]-1-cyclohexanecarboxylic Acid]
6.07 | 7.55 | O=C(O)C1CCCC(c2cccc(COc3ccc(-c4ccn[nH]4)nc3)c2)C1 (stereo not shown) [Example 8-3]
5.37 | 6.60 | O=C(O)c1ccccc1-c1cccc(COc2ccc(-c3ccn[nH]3)nc2)c1 [Example 8-4]
5.64 | 6.25 | CC(C)(C(=O)O)c1cccc(S(=O)(=O)CCCCOc2ccc(-c3ccn[nH]3)nc2)c1 [Example 8-5]
7.28 | 5.60 | CC(C)(CCN1CCc2ccc(COc3ccc(-c4ccn[nH]4)nc3)cc2C1=O)C(=O)O [Example 8-6]
6.55 | 6.36 | O=C(O)CCc1ccc(CCCOc2ccc(-c3ccn[nH]3)nc2)cc1 [Example 8-7]
5.96 | 6.59 | O=C(O)Cc1ccc(CCCOc2ccc(-c3ccn[nH]3)nc2)cc1 [Example 8-8]
5.21 | 7.54 | O=C(O)COc1ccc(COc2ccc(-c3ccn[nH]3)nc2)cc1 [Example 8-9]
5.89 | 7.46 | O=C(O)c1ccnc(-c2cccc(COc3ccc(-c4ccn[nH]4)nc3)c2)c1 [Example 8-10]
6.92 | 7.85 | O=C(O)c1cc(-c2cccc(COc3ccc(-c4ccn[nH]4)nc3)c2)ccn1 [Example 8-11]
